Like-named read-outs stand apart in the source and are kept apart here.
Target: P-glycoprotein (Pgp) (Homo sapiens, UniProt P08183)
Settings: for conformation change which prevents binding of MM12.10 after UIC2 (efficient in ACT): cells pretreated with modulator/substrate, then UIC2, then FITC-MM12.10, KB-V1 and NIH 3T3 MDR1 cells
Experimental: The cells were trypsinized as usual, washed twice with PBS (phosphate buffered saline, pH 7,4). 10^6 cells/1 ml PBS (plus 8 mM glucose), pre-incubated for 20 minutes at 37° C. with different drugs, modulators, and without washing the cells, the first (“A”) monoclonal antibody was added to the samples. After a further 30 minutes incubation (at 37° C.) an FITC or 5-sFx conjugated second (“B”) antibody was added to the samples (again without washing the cells), and were incubated at 37° C. for another 30 minutes. In case of the UIC2-shift test the cells were incubated with UIC2 antibody, washed twice, and incubated with goat anti-mouse IgG2a FITC conjugate (F/P=4,3, Sigma) on ice in 100 μl PBS for 45 minutes. The samples washed twice were resuspended in 500 μl PBS, and analyzed in flow cytometer. The antibody concentrations used were: 8 μg/ml MRK16, MC57, MM8.15, MM12.10 and 10 μg/ml UIC2. Daunorubicine (DNR) and calcein accumulation tests: see Goda, K. et al.: Practical guide to physical analysis of cell surface receptors, Ed.: Krasznai, Z. and Mátyus, L., pp. 110-125 (1998); Homolya, L., Holló, Zs., Germann, U. A., Pastan, L, Gottesman, M. M. and Sarkadi, B.: Fluorescent cellular indicators are extruded by the multidrug resistance protein. Journal of Biological Chemistry 268 21493-21496 (1993); Holló, Zs., Homolya, L., Davis, C. W. and Sarkadi, B.: Calcein accumulation as a fluorimetric functional assay of the multidrug trasporter. Biochimica et Biophysica Acta 1191 384-388 199420,21.
The average fluorescence intensities per cell were determined by Becton Dickinson FACScan (Mountain View, Calif.). Dead cells were excluded from the analysis by propidium-iodate staining. The fluorescence signals were plotted on logarithmic scale, the two-level analysis was carried out by BDIS CellQuest and FloWin softwares (SoftFlow Ltd., Pécs, Hungary).
The cells are then treated with the first (“A”) antibody (incubation with or without UIC2, MM8.1 or MC57) for 30 minutes, and the cells are labelled with FITC-MM12.10 (“B”) antibody The curves are flow cytometry histograms from representative measurement each. Continous line: control without “A”; bold line: “A”=UIC2; dotted line: “A”=MM8.15 (a-d) or MC57 (e-f). Binding of the “A” antibodies was verified in two independent experiments, with indirect immunfluorescence.
The ratio of average FITC MM12.10 fluorescence intensities, with and without UIC2 pretreatment give the Rcompetition values (black columns). Cells were pretreated for 20 minutes with reverting agents, and incubated for further 20 minutes with UIC2 antibody, finally the FITC-MM12.10 antibody was used (further 30 minutes incubation). Cells were not washed between the incubation steps. […] UIC2-shift was detected by indirect immunfluorescence; the white columns show the ratio of the average fluorescence intensities detected with and without the reverting treatments (Rshift). On the insert figure the same UIC2-shift data are plotted on magnified scale. The average of 4-6 independent measurements (±SEM) are shown.
ACT tests were carried out on NIH3T3 MDR1 cells, with different antibody combinations. Following UIC2 or MM12.10 (not conjugated with stain) pretreatment the cells are labelled with FITC or 5sFx conjugated MM12.10, UIC2, MRK16 and MM18.15 antibodies. Before adding the antibodies the cells are pretreated with CSA (grey columns) or not (black columns).

P-glycoprotein (Pgp), sequence (P08183 whole entry): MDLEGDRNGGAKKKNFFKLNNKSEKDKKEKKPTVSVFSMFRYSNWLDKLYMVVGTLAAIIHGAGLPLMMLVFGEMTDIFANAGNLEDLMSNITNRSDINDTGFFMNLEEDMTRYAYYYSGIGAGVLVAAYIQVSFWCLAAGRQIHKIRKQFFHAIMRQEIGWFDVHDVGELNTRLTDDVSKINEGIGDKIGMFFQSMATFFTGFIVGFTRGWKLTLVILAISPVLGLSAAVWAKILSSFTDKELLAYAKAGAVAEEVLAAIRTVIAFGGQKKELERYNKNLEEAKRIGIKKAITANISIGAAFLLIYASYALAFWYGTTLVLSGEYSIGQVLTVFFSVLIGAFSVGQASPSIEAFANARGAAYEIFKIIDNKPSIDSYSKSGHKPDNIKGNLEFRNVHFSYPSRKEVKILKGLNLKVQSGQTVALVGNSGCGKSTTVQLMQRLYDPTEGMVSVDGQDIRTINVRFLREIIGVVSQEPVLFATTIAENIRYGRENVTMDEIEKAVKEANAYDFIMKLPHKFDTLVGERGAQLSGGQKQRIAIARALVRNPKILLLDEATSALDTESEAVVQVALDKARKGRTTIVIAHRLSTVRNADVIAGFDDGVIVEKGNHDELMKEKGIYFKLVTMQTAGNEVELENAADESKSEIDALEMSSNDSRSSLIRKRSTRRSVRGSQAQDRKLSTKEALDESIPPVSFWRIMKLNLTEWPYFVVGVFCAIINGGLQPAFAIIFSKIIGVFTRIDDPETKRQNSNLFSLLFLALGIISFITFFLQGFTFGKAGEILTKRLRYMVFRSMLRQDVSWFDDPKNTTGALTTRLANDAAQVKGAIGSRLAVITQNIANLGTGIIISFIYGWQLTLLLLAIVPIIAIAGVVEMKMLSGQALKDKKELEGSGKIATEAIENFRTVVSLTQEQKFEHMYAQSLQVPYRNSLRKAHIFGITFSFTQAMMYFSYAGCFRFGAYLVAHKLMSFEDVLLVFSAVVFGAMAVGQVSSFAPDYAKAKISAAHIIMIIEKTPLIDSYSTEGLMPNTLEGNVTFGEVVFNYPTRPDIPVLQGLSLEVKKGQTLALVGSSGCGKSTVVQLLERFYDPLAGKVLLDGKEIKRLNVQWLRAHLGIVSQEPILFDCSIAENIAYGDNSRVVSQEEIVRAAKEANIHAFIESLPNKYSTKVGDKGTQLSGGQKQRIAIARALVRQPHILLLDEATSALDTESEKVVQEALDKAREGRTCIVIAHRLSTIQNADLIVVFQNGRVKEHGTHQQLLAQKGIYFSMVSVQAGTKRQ

| Compound | Rcompetition value in ACT after ATP depletion | conformation change which prevents binding of MM12.10 after UIC2 (efficient in ACT) | conformation change which prevents binding of MM12.10 after UIC2 (efficient in ACT) (listed as valinomycin) |
| --- | --- | --- | --- |
| CC[C@H]1/C=C/C=C/C[C@@H](C)[C@H](O)[C@@](C)(O)C(=O)[C@@H](C)[C@H](O)[C@@H](C)C(=O)[C@@H](C)[C@H](O)[C@@H](C)/C=C/C(=O)O[C@@H]2[C@H](C)[C@H](CC1)O[C@]1(CC[C@H](C)[C@H](C[C@@H](C)O)O1)[C@H]2C [oligomicin] | big | – | – |
| CC(C)[C@@H]1NC(=O)[C@H](C)OC(=O)[C@@H](C(C)C)NC(=O)[C@@H](C(C)C)OC(=O)[C@H](C(C)C)NC(=O)[C@H](C)OC(=O)[C@@H](C(C)C)NC(=O)[C@@H](C(C)C)OC(=O)[C@H](C(C)C)NC(=O)[C@H](C)OC(=O)[C@@H](C(C)C)NC(=O)[C@@H](C(C)C)OC1=O [valinomycine] | – | accomplishes the conformation change | efficient |
| C/C=C/C[C@@H](C)C(=O)[C@H]1C(=O)N[C@@H](C(C)C)C(=O)N(C)CC(=O)N(C)[C@@H](CC(C)C)C(=O)N[C@@H](C(C)C)C(=O)N(C)[C@@H](CC(C)C)C(=O)N[C@@H](C)C(=O)N[C@H](C)C(=O)N(C)[C@@H](CC(C)C)C(=O)N(C)[C@@H](CC(C)C)C(=O)N(C)[C@@H](C(C)C)C(=O)N1C [PSC 833] | – | accomplishes the conformation change | – |
| gramicidin | – | doesn't | – |

— patent publication US20040137532A1, “Antibody competition test (act) for the qualitative and conformation dependent quantitative detection of the conformation changes of p-glycoprotein and other cell surface receptors, pumps and proteins, and uses thereof” (priority 2001, published 2004)
